# Results as given in patent publication US11447505B1, “Pyrrolo[2,3-b]pyridine compounds and their use in the treatment of cancer” (priority 2017, dated 2022).
# “Also recorded” adds a separate entry of the source.
# Columns and labels:
# MRCKα = MRCKα (Homo sapiens (Human), UniProt Q5VT25); assay: MRCKα kinase assay (IMAP fluorescence polarization); format: biochemical; conditions: 1 μM ATP; read-out: MRCK-a Average Ki
# Text: (§1) MRCKα, MRCKβ, ROCK1 and ROCK2 Kinase Assays
# MRCKβ [1] = molecular target: T1, MRCKβ (Homo sapiens (Human), UniProt Q9Y5S2); assay: MRCKβ kinase assay (IMAP fluorescence polarization); format: biochemical; conditions: 1 μM ATP; read-out: MRCK-B Average Ki
# Text: as §1
# ROCK2 = ROCK2 (Homo sapiens (Human), UniProt O75116); assay: ROCK2 kinase assay (IMAP fluorescence polarization); format: biochemical; conditions: 1 μM ATP; read-out: ROCK2 Average Ki
# Chain of ROCK2 (O75116 whole entry, the tested form may be a part): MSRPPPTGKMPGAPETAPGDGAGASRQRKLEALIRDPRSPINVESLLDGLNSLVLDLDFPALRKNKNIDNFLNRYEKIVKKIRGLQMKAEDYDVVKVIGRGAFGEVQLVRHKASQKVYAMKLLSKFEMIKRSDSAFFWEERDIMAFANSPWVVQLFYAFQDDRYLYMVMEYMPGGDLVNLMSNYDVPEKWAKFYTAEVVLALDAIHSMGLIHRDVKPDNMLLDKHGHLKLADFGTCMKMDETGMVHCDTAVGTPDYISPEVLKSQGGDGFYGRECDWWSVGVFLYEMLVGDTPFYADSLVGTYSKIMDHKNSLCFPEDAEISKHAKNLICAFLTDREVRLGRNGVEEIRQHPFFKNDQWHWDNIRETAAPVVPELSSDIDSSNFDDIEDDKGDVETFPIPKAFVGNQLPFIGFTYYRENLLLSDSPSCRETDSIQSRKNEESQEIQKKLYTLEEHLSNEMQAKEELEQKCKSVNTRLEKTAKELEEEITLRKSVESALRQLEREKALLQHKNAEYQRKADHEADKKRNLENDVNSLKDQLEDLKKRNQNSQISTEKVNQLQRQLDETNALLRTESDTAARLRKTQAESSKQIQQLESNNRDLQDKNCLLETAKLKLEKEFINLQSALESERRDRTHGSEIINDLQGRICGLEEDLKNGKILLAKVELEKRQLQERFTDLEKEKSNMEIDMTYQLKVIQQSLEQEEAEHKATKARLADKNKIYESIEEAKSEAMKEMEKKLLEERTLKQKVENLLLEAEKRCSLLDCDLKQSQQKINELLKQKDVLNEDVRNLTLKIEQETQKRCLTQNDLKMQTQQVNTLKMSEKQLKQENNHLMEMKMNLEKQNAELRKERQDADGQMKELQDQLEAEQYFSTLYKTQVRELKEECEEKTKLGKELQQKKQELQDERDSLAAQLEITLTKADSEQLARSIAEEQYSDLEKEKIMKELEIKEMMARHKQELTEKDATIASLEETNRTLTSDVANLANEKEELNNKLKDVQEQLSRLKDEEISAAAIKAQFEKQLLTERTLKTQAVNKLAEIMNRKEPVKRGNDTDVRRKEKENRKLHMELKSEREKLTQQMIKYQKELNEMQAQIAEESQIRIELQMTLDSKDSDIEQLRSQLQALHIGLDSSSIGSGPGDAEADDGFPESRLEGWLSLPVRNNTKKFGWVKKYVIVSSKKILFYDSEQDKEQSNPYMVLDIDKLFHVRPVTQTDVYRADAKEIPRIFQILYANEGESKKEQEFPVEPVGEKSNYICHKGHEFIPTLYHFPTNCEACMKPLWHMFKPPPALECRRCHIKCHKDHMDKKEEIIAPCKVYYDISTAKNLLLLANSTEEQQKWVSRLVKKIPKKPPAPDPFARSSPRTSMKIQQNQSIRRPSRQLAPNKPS
# MRCKβ [2] = molecular target: T1, MRCKβ; assay: MRCKβ cellular assay (pMLC T18/S19 immunoblot, MDA-MB-231 cells with doxycycline inducible kinase domain); format: cell-based; conditions: MDA-MB-231 cells, doxycycline inducible kinase domain, 60 minutes, pMLC (T18/S19); read-out: Cellular assay - MRCK-b inhibition MEAN
# Procedure, shortened: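 Kinase domain expression in MDA-MB-231 cells induced with 1 μg/ml doxycycline for 18 h, then compounds applied over a concentration range for 60 min. Lysates resolved by SDS-PAGE; pMLC (T18/S19) and α-tubulin measured by quantitative IR immunoblotting.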
# ROCK1 [3] = molecular target: T2, ROCK1 (Homo sapiens (Human), UniProt Q13464); assay: ROCK1 cellular assay (pMLC T18/S19 immunoblot, MDA-MB-231 cells with doxycycline inducible kinase domain); format: cell-based; conditions: MDA-MB-231 cells, doxycycline inducible kinase domain, 60 minutes, pMLC (T18/S19); read-out: Cellular assay - ROCK1 inhibition MEAN
# T2 sequence (Q13464 2-1354 limits assumed): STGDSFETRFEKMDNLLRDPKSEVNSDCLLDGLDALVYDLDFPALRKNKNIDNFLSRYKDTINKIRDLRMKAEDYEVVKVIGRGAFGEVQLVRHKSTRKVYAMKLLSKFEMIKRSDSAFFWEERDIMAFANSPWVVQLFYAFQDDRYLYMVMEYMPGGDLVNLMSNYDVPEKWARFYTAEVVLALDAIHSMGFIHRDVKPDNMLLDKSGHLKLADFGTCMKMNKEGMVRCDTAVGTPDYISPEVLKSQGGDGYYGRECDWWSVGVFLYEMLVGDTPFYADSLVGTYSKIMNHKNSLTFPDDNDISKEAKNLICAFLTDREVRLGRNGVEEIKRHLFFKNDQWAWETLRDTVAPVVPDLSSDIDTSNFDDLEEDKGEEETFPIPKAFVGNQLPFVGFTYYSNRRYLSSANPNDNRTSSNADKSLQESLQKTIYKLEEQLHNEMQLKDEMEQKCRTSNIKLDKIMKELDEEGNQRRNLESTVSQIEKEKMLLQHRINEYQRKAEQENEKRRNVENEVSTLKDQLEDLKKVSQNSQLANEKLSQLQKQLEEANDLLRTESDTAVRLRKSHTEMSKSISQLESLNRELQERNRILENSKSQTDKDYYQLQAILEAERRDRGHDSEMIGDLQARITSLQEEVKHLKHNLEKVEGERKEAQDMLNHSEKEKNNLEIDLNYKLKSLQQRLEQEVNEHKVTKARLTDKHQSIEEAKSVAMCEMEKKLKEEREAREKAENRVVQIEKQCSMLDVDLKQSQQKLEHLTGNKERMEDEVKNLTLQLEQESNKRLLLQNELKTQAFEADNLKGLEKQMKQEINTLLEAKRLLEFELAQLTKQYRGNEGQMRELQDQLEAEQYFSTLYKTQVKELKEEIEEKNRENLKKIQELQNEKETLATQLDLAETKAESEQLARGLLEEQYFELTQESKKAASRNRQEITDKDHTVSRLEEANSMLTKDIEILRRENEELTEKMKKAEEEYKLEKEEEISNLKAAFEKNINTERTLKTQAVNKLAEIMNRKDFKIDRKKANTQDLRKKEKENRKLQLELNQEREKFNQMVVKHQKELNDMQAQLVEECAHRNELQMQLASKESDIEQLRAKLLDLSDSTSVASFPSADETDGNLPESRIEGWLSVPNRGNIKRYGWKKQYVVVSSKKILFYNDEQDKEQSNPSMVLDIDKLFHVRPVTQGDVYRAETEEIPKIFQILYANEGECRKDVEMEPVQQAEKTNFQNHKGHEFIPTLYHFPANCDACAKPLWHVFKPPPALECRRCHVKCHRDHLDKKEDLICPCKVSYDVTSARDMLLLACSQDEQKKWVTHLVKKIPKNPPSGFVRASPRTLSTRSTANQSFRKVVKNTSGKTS
# Procedure: MRCKβ, ROCK1 and ROCK2 Cellular Assays
# MDA-MB-231 cells expressing doxycycline inducible ROCK1, ROCK2 or MRCKβ kinase domains were plated at 1.1×10^5 cells per well of a 12 well plate. After 24 hours, cells were treated with 1 μg/ml doxycycline for 18 hours to induce kinase domain expression and then tested over a suitable concentration range with compounds of the invention for 60 minutes. Cells were then washed with PBS and lysed with Tris-SDS lysis Buffer (50 mM Tris-HCl pH7.4, 0.5% (v/v) SDS, 1×PhosStop Inhibitors (04 906 837 001; Roche) and 1×Complete Protease Inhibitors (04 693 124 001; Roche)). Whole cell lysates were clarified by passing through QIAshredder spin columns, separated by SDS-PAGE, and quantitative immunoblotting performed using a LI-COR Odyssey IR scanner to determine pMLC (T18/S19) and α-Tubulin levels.
# DMBA/TPA skin papillomas = assay: DMBA/TPA mouse model of squamous cell carcinoma, topical treatment; format: in vivo; conditions: topical 25 μg 5 times per week for 14 weeks, vs DMSO
# Procedure: (§2) For DMBA/TPA experiments, 40 FVB mice were treated topically with 25 μg DMBA in acetone on day 1. From day 5, 4.7 μg TPA in acetone was applied 3 times weekly. […] Experimenters were fully blinded to the identity of treatment groups. Mice weights and general conditions were monitored at least 2 times per week, tumor sizes and numbers were recorded weekly. Mice were culled when papillomas reached 12 mm in diameter. Analysis of tumor volume and papilloma numbers were performed blinded to the identity of treatment groups.
# E2 and G7 cells = assay: Sub confluent migration assay of irradiated GBM cells (timelapse, single cell tracking); format: cell-based, human; conditions: 2 Gy
# Procedure: (§3) Cells were irradiated using an Xstrahl RX225 radiation cabinet (195 kV X-rays, dose rate 1.39 Gy/minute). For sub confluent migration assays, 2×10^5 cells per well were plated at in 6 well dishes and migration imaged by timelapse microscopy capturing images every 15 mins. Migration velocity was calculated using single cell tracking via ImageJ analysis. For ex vivo migration assays, cell were seeded onto fresh 1 mm coronal brain slices obtained from 6-8 week old C57BL/6 mice in culture medium (described above) and allowed to establish overnight with incubation at 37° C., 5% CO2. Brain slices were then inverted onto Lumox 35 mm dishes (8 μm, Sarstedt) and secured with Nuclepore Track-Etch membrane (Whatman) sealed with Matrigel. Migration was captured via confocal timelapse microscopy with images taken every 15 mins. Migration velocity was calculated using single cell tracking via ImageJ analysis.
# (§4) (B) Treated cells were exposed to 0 Gy or 2 Gy and imaged in a sub-confluent migration assay. Cell speed was measured by single cell tracking. […] Data from 3 biological replicates. (D) Fluorescently labelled E2 cells were exposed to 0 Gy or 2 Gy radiation and seeded onto fresh murine brain slices. […] Data from 3 biological replicates. […] Baseline value of 34% was calculated from the average of 10 non-motile, non-irradiated cells. […]
# E2 cells [4] = assay: Ex vivo migration assay of irradiated GBM cells on murine brain slices; format: cell-based, human; conditions: 100 nM, 2 Gy
# Procedure: as §3, §4
# G7 cells = assay: Cell viability assay; format: cell-based, human
# Text: (§5) FIG. 4. […] N.S.=not significant. […] Cells were imaged using an Operetta high-throughput imaging platform. Red: actin, blue: DAPI, Scale bar: 100 μm. Automated image analysis was undertaken to quantify changes in neurite morphology. Data from >1000 cells.
# G7 and E2 cells = assay: Clonogenic survival assay with irradiation; format: cell-based, human; conditions: 100 nM, G7 or E2 cells
# Text: as §5
# pMLC2 = pMLC2 immunofluorescence, Operetta high-throughput imaging; format: cell-based, human
# Text: Cells were imaged using an Operetta high-throughput imaging platform. Green: pMLC2; yellow: actin; red: whole cell dye; blue: DAPI; Scale bar: 100 μm. (ii) Automated image analysis was undertaken to compare pMLC2 levels in control and irradiated cells. Data are derived from two biological repeats, each analysing >400 cells per condition.
# Cells were imaged using an Operetta high-throughput imaging platform. Automated image analysis was used to compare pMLC2 levels. Data from two biological repeats with >400 cells per condition per biological replicate. Data plotted as a percentage of vehicle. […] Cells were imaged using an Operetta high-throughput imaging platform.
# E2 cells [5] = assay: Neurite morphology, automated image analysis; format: cell-based, human; conditions: cells treated with irradiation
# Text: as §5
# [6] = PK analysis in mice bearing intracranial U87MG or G7 tumours, subcutaneous dosing; format: in vivo, mouse
# Procedure: (§6) Female CD1 nude mice were orthotopically injected with 1×10^5 G7 or U87MG cells into the subventricular zone as previously described (16, 17). Tumours were allowed to establish for before magnetic resonance imaging (MRI) to confirm presence of tumour. Radiation treatments were conducted using an XSrtahl Small Animal Radiation Research Platform (SARRP). […] Tumours were sub-dissected and fresh frozen specimens sent for PK analysis (Vertex, UK). Formalin fixed, paraffin embedded sections were stained for Ki67, HLA or phosphoMYPT1 then scanned using a Hamamatsu Nanozoomer Slide scanning machine with Leica SlidePath Slide imaging software. Algorithms were optimised for each stain individually and automated, quantitative analysis undertaken. The defining of contralateral regions was performed blinded.
# (§7) Tumours were sub-dissected from normal brain tissue and analysed by mass spectrometry to determine total compound levels (‘Total’). […] G7 intracranial tumours were allowed to establish for 12 weeks before initiation of treatment. The study was randomised and blinded. […] (D) Brain sections were stained by IHC for pMYPT1 levels (i). Levels of nuclear and cytoplasmic pMYPT1 were quantified by automated analysis using SlidePath. Statistical analysis: two tailed, unpaired t test. *p<0.05.
# Plasma protein binding = format: in vitro ADME
# pMYPT1 = pMYPT1 IHC of brain sections from mice bearing G7 intracranial tumours; format: in vivo, mouse; conditions: 3×2 Gy whole brain RT + 5 mg/kg twice daily for 10 days; listed as BDP-9066
# Procedure: as §6, §7
# G7 intracranial tumours = assay: Survival of mice bearing G7 intracranial GBM tumours; format: in vivo, mouse
# Procedure: Female CD1 nude mice were orthotopically injected with 1×10^5 G7 or U87MG cells into the subventricular zone as previously described (16, 17). Tumours were allowed to establish […] magnetic resonance imaging (MRI) to confirm presence of tumour. Radiation treatments were conducted using an XSrtahl Small Animal Radiation Research Platform (SARRP). 5 mg/kg BDP-9066 or vehicle (20% propylene glycol/80% PBS) was given subcutaneously twice daily or at stated time before cull for PK analysis. Tumours were sub-dissected and fresh frozen specimens sent for PK analysis (Vertex, UK). Formalin fixed, paraffin embedded sections were stained for Ki67, HLA or phosphoMYPT1 then scanned using a Hamamatsu Nanozoomer Slide scanning machine with Leica SlidePath Slide imaging software. Algorithms were optimised for each stain individually and automated, quantitative analysis undertaken. The defining of contralateral regions was performed blinded.
# FIG. 6. […] (A) Outline of experiment to measure in vivo survival to BDP-9066 treatment. G7 intracranial tumours were allowed to establish for 10 weeks before initiation of treatment. Mice in the RT cohorts received 6×2 Gy whole brain RT over the course of two weeks. Only mice that were culled after the first 3 fractions of RT were included in the analysis to allow for any treatment benefit to take effect. The study was randomised, blinded and the mice stratified across the cohorts based on starting tumour size as assessed by T2 MRI. (B) Kaplan-Meier plot showing survival data. N.S.=not significant, *<p 0.05, **p<0.005. Statistical analysis: Log-rank (Mantel-Cox) test.
# Pharmacological inhibition of MRCK when combined with radiotherapy confers a significant survival benefit to intracranial GBM tumour bearing mice. G7 intracranial tumours were established in four cohorts of mice: vehicle, BDP-9066, RT+vehicle and RT+BDP-9066 (FIG. 6A) and the 4 week treatment schedule outlined in FIG. 6A was commenced at 10 weeks post tumour cell injection. The experiment was terminated at 104 days after a final T2 MRI on the remaining mice.
# ROCK1 [7] = molecular target: T2, ROCK1; assay: biochemical
# [8] = molecular target: kinase targets listed in tables 3 and 4 (Homo sapiens, UniProt Q13464); assay: biochemical
# Chain of kinase targets listed in tables 3 and 4 (Homo sapiens, UniProt Q13464) (Q13464 2-1354 limits assumed): as above
# [9] = molecular target: kinase targets listed in tables 3 and 4 (Homo sapiens, UniProt Q9BXA7); assay: biochemical
# Chain of kinase targets listed in tables 3 and 4 (Homo sapiens, UniProt Q9BXA7) (Q9BXA7 whole entry, looked up): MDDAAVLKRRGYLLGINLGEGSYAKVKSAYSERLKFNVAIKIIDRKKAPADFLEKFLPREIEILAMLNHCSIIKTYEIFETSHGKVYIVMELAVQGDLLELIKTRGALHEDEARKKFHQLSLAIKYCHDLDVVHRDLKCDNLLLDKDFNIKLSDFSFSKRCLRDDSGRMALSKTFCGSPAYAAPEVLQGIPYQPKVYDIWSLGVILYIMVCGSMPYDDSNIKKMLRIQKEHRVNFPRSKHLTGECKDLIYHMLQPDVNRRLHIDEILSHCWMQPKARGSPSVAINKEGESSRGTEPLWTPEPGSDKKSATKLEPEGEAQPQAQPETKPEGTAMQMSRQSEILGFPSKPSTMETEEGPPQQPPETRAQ
# [10] = molecular target: kinase targets listed in tables 3 and 4 (Homo sapiens, UniProt Q9Y5S2); assay: biochemical
# Chain of kinase targets listed in tables 3 and 4 (Homo sapiens, UniProt Q9Y5S2) (Q9Y5S2 whole entry, looked up): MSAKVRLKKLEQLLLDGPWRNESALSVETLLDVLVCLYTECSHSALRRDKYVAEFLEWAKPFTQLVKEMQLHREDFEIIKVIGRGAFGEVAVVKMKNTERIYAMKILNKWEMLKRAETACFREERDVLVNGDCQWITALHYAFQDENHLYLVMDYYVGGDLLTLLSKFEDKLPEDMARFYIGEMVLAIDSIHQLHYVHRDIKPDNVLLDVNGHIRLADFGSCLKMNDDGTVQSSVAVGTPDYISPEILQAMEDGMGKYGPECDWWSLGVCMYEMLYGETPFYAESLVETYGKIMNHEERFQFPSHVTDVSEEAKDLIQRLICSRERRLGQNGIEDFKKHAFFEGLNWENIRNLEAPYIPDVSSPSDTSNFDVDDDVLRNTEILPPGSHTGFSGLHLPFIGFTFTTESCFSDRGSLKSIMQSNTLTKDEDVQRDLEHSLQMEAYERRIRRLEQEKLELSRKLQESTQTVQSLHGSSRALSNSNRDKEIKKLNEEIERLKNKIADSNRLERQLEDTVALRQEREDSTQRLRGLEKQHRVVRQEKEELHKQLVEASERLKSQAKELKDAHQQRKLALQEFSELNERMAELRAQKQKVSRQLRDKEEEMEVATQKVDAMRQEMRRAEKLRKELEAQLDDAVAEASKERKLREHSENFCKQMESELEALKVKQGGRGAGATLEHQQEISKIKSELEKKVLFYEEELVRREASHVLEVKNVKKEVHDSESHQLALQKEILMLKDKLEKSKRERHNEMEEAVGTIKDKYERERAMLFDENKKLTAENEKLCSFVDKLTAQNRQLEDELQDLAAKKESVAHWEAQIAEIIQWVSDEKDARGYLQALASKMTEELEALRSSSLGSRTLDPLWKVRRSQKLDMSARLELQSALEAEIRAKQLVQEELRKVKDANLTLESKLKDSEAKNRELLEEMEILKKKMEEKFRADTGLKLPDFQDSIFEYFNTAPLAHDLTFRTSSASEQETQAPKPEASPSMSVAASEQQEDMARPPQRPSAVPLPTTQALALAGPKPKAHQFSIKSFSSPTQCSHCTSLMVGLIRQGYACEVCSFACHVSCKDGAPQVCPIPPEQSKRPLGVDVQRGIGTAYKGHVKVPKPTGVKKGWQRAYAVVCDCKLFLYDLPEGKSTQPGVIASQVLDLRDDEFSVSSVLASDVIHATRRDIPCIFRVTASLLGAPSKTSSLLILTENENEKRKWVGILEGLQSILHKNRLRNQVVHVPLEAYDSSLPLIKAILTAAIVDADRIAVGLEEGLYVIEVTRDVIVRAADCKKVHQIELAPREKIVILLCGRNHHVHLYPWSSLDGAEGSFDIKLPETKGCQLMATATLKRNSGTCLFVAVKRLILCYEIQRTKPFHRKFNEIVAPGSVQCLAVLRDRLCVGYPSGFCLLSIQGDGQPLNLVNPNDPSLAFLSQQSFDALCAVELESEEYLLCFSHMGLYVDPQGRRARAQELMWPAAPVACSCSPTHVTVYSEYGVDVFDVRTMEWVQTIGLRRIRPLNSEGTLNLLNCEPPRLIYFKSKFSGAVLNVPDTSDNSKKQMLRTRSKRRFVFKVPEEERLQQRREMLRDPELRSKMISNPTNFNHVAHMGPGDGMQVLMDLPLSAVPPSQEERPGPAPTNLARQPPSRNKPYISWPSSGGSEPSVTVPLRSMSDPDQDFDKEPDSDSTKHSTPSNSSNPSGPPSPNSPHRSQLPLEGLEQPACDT
# [11] = Skin and blood compound concentrations after topical application to FVB mice
# Procedure: (§8) Mice were culled 2 hours after final treatment. […] Mice were culled 2 hours, 4 hours, 8 hours or 24 hours after final treatment.
# as §2
# MRCKα pS1003 = MRCKα pS1003 immunohistochemical staining of topically treated mouse skin and papillomas; conditions: vs DMSO
# Procedure: as §8, §2
# [12] = FVB, mouse, skin, topical, 25 μg
compound,measurement,setting,value
"c1cc(-c2c[nH]c3nccc(N4CCC[C@@]5(CCCCN5)C4)c23)ncn1 [Example E117, (6S)-8-(3-pyrimidin-4-yl-1H-pyrrolo[2,3-b]pyridin-4-yl)-1,8-diazaspiro[5.5]undecane]",Ki,MRCKα,0.0136 nM
same,Ki,MRCKβ [1],0.0233 nM
same,Ki,ROCK2,5.38 nM
same,IC50,MRCKβ [2],28.3 nM
same,IC50,ROCK1 [3],10600 nM
same,average papilloma volume per mouse,DMBA/TPA skin papillomas,significantly reduced
same,skin papilloma appearance at study end,DMBA/TPA skin papillomas,appeared visually smaller
same,total papilloma numbers per mouse,DMBA/TPA skin papillomas,not different
same,total tumor volume per mouse,DMBA/TPA skin papillomas,significantly reduced
same,radiation driven sub confluent migration,"E2 and G7 cells; 100 nM, G7 and E2 cells",fully oppose
same,cell speed of irradiated GBM cells,"E2 and G7 cells; increasing concentrations, E2 and G7 cells",robust dose response
same,radiation driven ex vivo brain slice invasion,E2 cells [4],fully oppose
same,cell viability at higher concentrations,"G7 cells; higher concentrations, likely off target toxicity",loss of cell viability
same,cell viability,"G7 cells; sub-micromolar levels / anti-invasive concentrations, G7 cells, listed as BDP-9066",does not affect cell survival; also recorded: No effect
same,radiation sensitivity measured by clonogenic survival,G7 and E2 cells,no impact
same,IC50,"pMLC2; Homo sapiens, light or radiation study, irradiated G7 and E2 cells",56 nM
same,response in biomarker assay (pMLC2),pMLC2; cells treated with irradiation,robust dose dependent response
same,response in morphological assay (neurites),E2 cells [5],robust dose dependent response
same,penetration of intracranial tumours,"[6]; 5 mg/Kg subcutaneous, 30 mins prior to cull, U87MG and G7 tumours, listed as BDP-9066",penetrates intracranial GBM xenografts; also recorded: penetrated intracranial tumours
same,presence in blood at the time of culling,[6]; 5 mg/kg subcutaneous twice daily for 10 days,micromolar concentrations
same,bioavailability,"[6]; PK profile, data not shown",good bioavailability
same,clearance,"[6]; PK profile, data not shown",rapid clearance
same,"exposure in the brain, contralateral hemisphere","[6]; sub-cutaneous dosing, absence of significant tumour burden",very low exposure
same,PPB free value,Plasma protein binding,72.7%
same,fraction unbound,Plasma protein binding; plasma,0.727
same,radiation driven MYPT1 phosphorylation,pMYPT1,inhibits; also recorded: opposes
same,"survival, combined with RT vs untreated cohort","G7 intracranial tumours; 6×2 Gy whole brain RT, p=0.0007, listed as BDP-9066",significant survival advantage; also recorded: highly significant increase in survival
same,"survival, combined with RT vs radiation alone","G7 intracranial tumours; 6×2 Gy whole brain RT, p=0.0459",significantly above
same,"survival, compound alone",G7 intracranial tumours; vs untreated cohort,no significant survival benefit
same,Ki,ROCK1 [7],18.4 nM
same,IC50,[8],141 nM
same,Ki,[8],54 nM
same,IC50,[9],287 nM
same,Ki,[9],136 nM
same,IC50,[10],8.3 nM
same,Ki,[10],1.38 nM
same,compound in blood at experimental endpoint,"[11]; DMBA/TPA FVB mice, topical 25 μg 5 times per week for 14 weeks",no detectable levels; also recorded: undetectable
same,concentration at 2 h,"[11]; FVB, mouse, blood, topical, 25 μg",0.04 µM
same,concentration at 14 weeks,[11]; [12],> 1 µM
same,concentration at 2 h,[11]; [12],26 µM
same,concentration at 24 h,[11]; [12],> 16 µM
same,clearance in the blood,[11]; by deactivation and/or metabolism,rapid clearance
same,drug levels in the skin compared with blood,"[11]; topical 4×25 μg over 2 days, dorsal skin",significantly higher than in blood
same,mean concentration in the skin,"[11]; topical administration, DMBA/TPA experiment",greater than 1 micromolar
same,level in blood 24 hours after final dosing,"[11]; topical single 25 μg or 8×25 μg (4 days on, 2 off, 4 on)",undetectable
same,compound accumulation on repeated dosing,"[11]; topical, repeated 25 μg vs single 10 μg",less than additive
same,MRCKα pS1003 cytoplasmic histoscores in papillomas,"MRCKα pS1003; DMBA/TPA mice, topical 25 μg",reduced histoscores
same,MRCKα pS1003 cytoplasmic histoscores in the treated skin area,"MRCKα pS1003; DMBA/TPA mice, topical 25 μg",reduced histoscores
same,MRCKα pS1003 immunohistochemistry staining,"MRCKα pS1003; DMBA/TPA treated skin, topical 25 μg",significant decreases
same,epidermal MRCKα pS1003 positive staining,"MRCKα pS1003; topical 4×25 μg over 2 days, FVB mouse skin",significant reduction; also recorded: significantly reduced
